Reference: ChEMBL document CHEMBL3885881, “DrugMatrix”

Organism: Rattus norvegicus
Experiment: DrugMatrix - Regimen: Daily Repeat
Type: toxicity, organism-based, Sprague-Dawley
Parameters: regimen Daily Repeat, gender Male, age 6-8 weeks
Conditions: in vivo, iv, vehicle 100 % SALINE; for ABSOLUTE BASOPHIL / ABSOLUTE EOSINOPHIL / ABSOLUTE LYMPHOCYTE / ABSOLUTE MONOCYTE / ABSOLUTE SEGMENTED NEUTROPHIL / BASOPHIL / EOSINOPHIL / ERYTHROCYTE COUNT / HEMATOCRIT / HEMOGLOBIN / LEUKOCYTE COUNT / LYMPHOCYTE / MEAN CORPUSCULAR HEMOGLOBIN / MEAN CORPUSCULAR HEMOGLOBIN CONCENTRATION / MEAN CORPUSCULAR VOLUME / MONOCYTE / NEUTROPHIL / NUCLEATED RED BLOOD CELLS / PLATELET COUNT: tissue Blood; for ALANINE AMINOTRANSFERASE / ALBUMIN / ALKALINE PHOSPHATASE / ASPARTATE AMINOTRANSFERASE / BLOOD UREA NITROGEN / CARBON DIOXIDE / CHLORIDE / CHOLESTEROL / CREATINE PHOSPHOKINASE / CREATININE / GLUCOSE / LACTATE DEHYDROGENASE / LIPASE / PHOSPHORUS / POTASSIUM / SODIUM / TOTAL BILIRUBIN / TOTAL PROTEIN / URIC ACID: tissue Plasma
[1] = 200 mg/kg, 72 h, dose level Low, time 3 day
[2] = 200 mg/kg, 120 h, dose level Low, time 5 day
[3] = 671 mg/kg, 72 h, dose level High, time 3 day
[4] = 671 mg/kg, 120 h, dose level High, time 5 day

CC1(C)[C@H](C(=O)O)N2C(=O)C[C@H]2S1(=O)=O [SULBACTAM]
ABSOLUTE BASOPHIL [1]: 0 CELLS/uL | ABSOLUTE EOSINOPHIL [1]: 43 CELLS/uL | ABSOLUTE LYMPHOCYTE [1]: 14561.67 CELLS/uL | ABSOLUTE MONOCYTE [1]: 271 CELLS/uL | ABSOLUTE SEGMENTED NEUTROPHIL [1]: 824.33 CELLS/uL | BASOPHIL [1]: 0% | EOSINOPHIL [1]: 0.33% | ERYTHROCYTE COUNT [1]: 5.6 x10E6/uL | HEMATOCRIT [1]: 36.53% | HEMOGLOBIN [1]: 13.5 G/DL | LEUKOCYTE COUNT [1]: 15.7 x10E3/uL | LYMPHOCYTE [1]: 93% | MEAN CORPUSCULAR HEMOGLOBIN [1]: 24.1 pg | MEAN CORPUSCULAR HEMOGLOBIN CONCENTRATION [1]: 36.97 G/DL | MEAN CORPUSCULAR VOLUME [1]: 65.23 fL | MONOCYTE [1]: 1.67% | NEUTROPHIL [1]: 5% | NUCLEATED RED BLOOD CELLS [1]: 0 /100WBC | PLATELET COUNT [1]: 1408.33 x10E3/uL | ALANINE AMINOTRANSFERASE [1]: 53.67 u/L | ALBUMIN [1]: 4.27 G/DL | ALKALINE PHOSPHATASE [1]: 448.33 u/L | ASPARTATE AMINOTRANSFERASE [1]: 100 u/L | BLOOD UREA NITROGEN [1]: 15.67 mg/dL | CARBON DIOXIDE [1]: 25 mmol/L | CHLORIDE [1]: 104.33 MEQ/L | CHOLESTEROL [1]: 75.67 mg/dL | CREATINE PHOSPHOKINASE [1]: 386 u/L | CREATININE [1]: 0.21 mg/dL | GLUCOSE [1]: 148.33 mg/dL | LACTATE DEHYDROGENASE [1]: 566.33 u/L | LIPASE [1]: 9 u/L | PHOSPHORUS [1]: 14.37 mg/dL | POTASSIUM [1]: 6.91 MEQ/L | SODIUM [1]: 147.5 MEQ/L | TOTAL BILIRUBIN [1]: 0.2 mg/dL | TOTAL PROTEIN [1]: 5.87 G/DL | URIC ACID [1]: 2.33 mg/dL | ABSOLUTE BASOPHIL [2]: 0 CELLS/uL | ABSOLUTE EOSINOPHIL [2]: 0 CELLS/uL | ABSOLUTE LYMPHOCYTE [2]: 14657 CELLS/uL | ABSOLUTE MONOCYTE [2]: 318 CELLS/uL | ABSOLUTE SEGMENTED NEUTROPHIL [2]: 925 CELLS/uL | BASOPHIL [2]: 0% | EOSINOPHIL [2]: 0% | ERYTHROCYTE COUNT [2]: 5.84 x10E6/uL | HEMATOCRIT [2]: 37.7% | HEMOGLOBIN [2]: 14.03 G/DL | LEUKOCYTE COUNT [2]: 15.9 x10E3/uL | LYMPHOCYTE [2]: 92% | MEAN CORPUSCULAR HEMOGLOBIN [2]: 24.03 pg | MEAN CORPUSCULAR HEMOGLOBIN CONCENTRATION [2]: 37.23 G/DL | MEAN CORPUSCULAR VOLUME [2]: 64.47 fL | MONOCYTE [2]: 2% | NEUTROPHIL [2]: 6% | NUCLEATED RED BLOOD CELLS [2]: 0 /100WBC | PLATELET COUNT [2]: 1395.33 x10E3/uL | ALANINE AMINOTRANSFERASE [2]: 49.67 u/L | ALBUMIN [2]: 4.37 G/DL | ALKALINE PHOSPHATASE [2]: 374.33 u/L | ASPARTATE AMINOTRANSFERASE [2]: 126 u/L | BLOOD UREA NITROGEN [2]: 17 mg/dL | CARBON DIOXIDE [2]: 23 mmol/L | CHLORIDE [2]: 109 MEQ/L | CHOLESTEROL [2]: 81.67 mg/dL | CREATINE PHOSPHOKINASE [2]: 1350 u/L | CREATININE [2]: 0.18 mg/dL | GLUCOSE [2]: 184.33 mg/dL | LACTATE DEHYDROGENASE [2]: 397.67 u/L | LIPASE [2]: 9.67 u/L | PHOSPHORUS [2]: 15.07 mg/dL | POTASSIUM [2]: 6.82 MEQ/L | SODIUM [2]: 147.1 MEQ/L | TOTAL BILIRUBIN [2]: 0.17 mg/dL | TOTAL PROTEIN [2]: 6.2 G/DL | URIC ACID [2]: 2.3 mg/dL | ABSOLUTE BASOPHIL [3]: 0 CELLS/uL | ABSOLUTE EOSINOPHIL [3]: 155 CELLS/uL | ABSOLUTE LYMPHOCYTE [3]: 10321.67 CELLS/uL | ABSOLUTE MONOCYTE [3]: 230 CELLS/uL | ABSOLUTE SEGMENTED NEUTROPHIL [3]: 793.33 CELLS/uL | BASOPHIL [3]: 0% | EOSINOPHIL [3]: 1% | ERYTHROCYTE COUNT [3]: 5.18 x10E6/uL | HEMATOCRIT [3]: 33.43% | HEMOGLOBIN [3]: 12.83 G/DL | LEUKOCYTE COUNT [3]: 11.5 x10E3/uL | LYMPHOCYTE [3]: 90.33% | MEAN CORPUSCULAR HEMOGLOBIN [3]: 24.77 pg | MEAN CORPUSCULAR HEMOGLOBIN CONCENTRATION [3]: 38.4 G/DL | MEAN CORPUSCULAR VOLUME [3]: 64.63 fL | MONOCYTE [3]: 2% | NEUTROPHIL [3]: 6.67% | NUCLEATED RED BLOOD CELLS [3]: 0 /100WBC | PLATELET COUNT [3]: 1400 x10E3/uL | ALANINE AMINOTRANSFERASE [3]: 58 u/L | ALBUMIN [3]: 4.2 G/DL | ALKALINE PHOSPHATASE [3]: 390 u/L | ASPARTATE AMINOTRANSFERASE [3]: 79.67 u/L | BLOOD UREA NITROGEN [3]: 16.67 mg/dL | CARBON DIOXIDE [3]: 23.67 mmol/L | CHLORIDE [3]: 105 MEQ/L | CHOLESTEROL [3]: 91.67 mg/dL | CREATINE PHOSPHOKINASE [3]: 323 u/L | CREATININE [3]: 0.17 mg/dL | GLUCOSE [3]: 164.67 mg/dL | LACTATE DEHYDROGENASE [3]: 190.67 u/L | LIPASE [3]: 9.67 u/L | PHOSPHORUS [3]: 13.3 mg/dL | POTASSIUM [3]: 6.52 MEQ/L | SODIUM [3]: 144.27 MEQ/L | TOTAL BILIRUBIN [3]: 0.2 mg/dL | TOTAL PROTEIN [3]: 5.83 G/DL | URIC ACID [3]: 1.6 mg/dL | ABSOLUTE BASOPHIL [4]: 0 CELLS/uL | ABSOLUTE EOSINOPHIL [4]: 174 CELLS/uL | ABSOLUTE LYMPHOCYTE [4]: 13614.33 CELLS/uL | ABSOLUTE MONOCYTE [4]: 314 CELLS/uL | ABSOLUTE SEGMENTED NEUTROPHIL [4]: 1597.67 CELLS/uL | BASOPHIL [4]: 0% | EOSINOPHIL [4]: 1% | ERYTHROCYTE COUNT [4]: 5.71 x10E6/uL | HEMATOCRIT [4]: 36.2% | HEMOGLOBIN [4]: 13.7 G/DL | LEUKOCYTE COUNT [4]: 15.7 x10E3/uL | LYMPHOCYTE [4]: 86.67% | MEAN CORPUSCULAR HEMOGLOBIN [4]: 24 pg | MEAN CORPUSCULAR HEMOGLOBIN CONCENTRATION [4]: 37.87 G/DL | MEAN CORPUSCULAR VOLUME [4]: 63.33 fL | MONOCYTE [4]: 2% | NEUTROPHIL [4]: 10.33% | NUCLEATED RED BLOOD CELLS [4]: 0 /100WBC | PLATELET COUNT [4]: 1356 x10E3/uL | ALANINE AMINOTRANSFERASE [4]: 44.33 u/L | ALBUMIN [4]: 4.33 G/DL | ALKALINE PHOSPHATASE [4]: 277 u/L | ASPARTATE AMINOTRANSFERASE [4]: 78 u/L | BLOOD UREA NITROGEN [4]: 18.33 mg/dL | CARBON DIOXIDE [4]: 26.67 mmol/L | CHLORIDE [4]: 108.33 MEQ/L | CHOLESTEROL [4]: 75.67 mg/dL | CREATINE PHOSPHOKINASE [4]: 555.67 u/L | CREATININE [4]: 0.17 mg/dL | GLUCOSE [4]: 164.67 mg/dL | LACTATE DEHYDROGENASE [4]: 144 u/L | LIPASE [4]: 9 u/L | PHOSPHORUS [4]: 13.8 mg/dL | POTASSIUM [4]: 6.54 MEQ/L | SODIUM [4]: 148.8 MEQ/L | TOTAL BILIRUBIN [4]: 0.17 mg/dL | TOTAL PROTEIN [4]: 6.43 G/DL | URIC ACID [4]: 1.67 mg/dL
